The term melting point denotes the temperature, or range, at which the solid turns liquid.

The values that follow come from patent US10849912B2, “Method of sensitizing cancer cells to the cytotoxic effects of apoptosis inducing ligands in cancer treatment” (The United States of America, as represented by the …, priority 2016, dated 2020).

“Also recorded” adds a separate entry of the source.

The subject of data set [1] is human M14 melanoma. As to the kind of experiment: Xenograft model of human M14 melanoma, intratumoral compound. Conditions: 20 mg/Kg, once per week for four weeks. The data set is classed as in vivo, athymic nude mice. As to the method: Female nude athymic mice were obtained from Charles River Laboratory. All mice were kept under specific pathogen-free conditions with water and food given ad libitum. All experiments with mice were performed in compliance with the principles and procedures outlined in the National Institutes of Health Guide for the Care and Use of Animals and were approved by the National Cancer Institute at Frederick Animal Care and Use Committee.
For in vivo treatments with compounds 9 and 1, compound 9 and compound 1 stock solutions (0.5M and 0.25M in DMSO respectively) were diluted in 33% Trappsol and DMSO at a ratio of 7:1 and administered intratumorally or at the base of tumor in a volume of 20 ul at a dose of 20 mg/Kg of body weight. […]
Mice (nude athymic, female, 6-8-week old, n=5), were implanted subcutaneously with 0.2 ml of M14 melanoma cells (1×10^6/mouse) into the right flank. […] The appearance and growth of tumors were monitored twice every week. The greatest longitudinal diameter (length) and the greatest transverse diameter (width) of a palpable tumor were measured to the nearest 0.1 mm using a caliper. Tumor volume (mm^3) was calculated by the ellipsoidal formula Tumor volume=[…]. […]
(In general: A xenograft is tissue or cells of one species grown in another, often human tumour cells in immunodeficient mice.)

Data set [2] deals with SK MEL28 melanoma cells. As to the kind of experiment: Effect of bafilomycin on sensitization to poly IC, MTS cell viability. The class given is cell-based, human. Conditions: 50 nM bafilomycin A, poly IC 36-48 h. As to the method: (§1) For all experiments, cells (ACHN (renal carcinoma), M14, SK MEL28, and Malme (human melanoma lines)) were plated at a concentration of 5000 cells/well overnight. All treatments were carried out the following day.
To inhibit TLR 3 signaling, cells were treated with compound 9, compound 1, or compound 10 for 4 hours followed by addition of 50 nM of Balfilomycin A or DMSO for 2.5 h. Subsequently poly IC was added for 36-48 h and cell viability was assessed by addition of MTS during the last four hours of Poly IC treatment. The results for compounds 9, 1, and 10 are depicted in FIG. 6.

Data set [3] concerns caspase-8. As to the kind of experiment: Western blot of caspase-8 activation in ACHN cells treated with compound, with or without poly IC. Conditions: compound 125 nM-1 μM overnight, then 10 ug/ml polyIC for 3 hours. The class given is cell-based. The method, then:
(§2) ACHN cells were grown in RPMI (RPMI, 5% FBS, Pen-strep, NEAA, HEPES, Glutamax, Sodium Pyruvate, 2ME), 2×10^6 cells/well were plated in 6 well plates and grown overnight, on day 2 compound 9 or compound 1 were added, including duplicate plates and incubated overnight. On day 3 either media or 10 ug/ml polyIC was added for 3 hours. Cells were lysed in RIPA buffer (30 mM Tris-HCL pH 7.5, 150 mM NaCl, 10% glycerol, 1% Triton X-100) supplemented with Pierce Halt Protease and Phosphatase Inhibitor and 40 μM ZVAD, the RIPA buffer also contained Pierce Universal Nuclease. Protein concentrations were measured using the Pierce BCA Protein Assay (Thermo Fisher Scientific, Waltham, Mass.), Twenty micrograms of each sample was run on a Bolt Gel (Thermo Fisher Scientific), transferred to a PVDF membrane using the BioRad Trans-Blot Turbo Transfer System (BioRad, Hercules, Calif.), briefly placed in Methanol, dried, rehydrated, and blocked in Pierce Start Block buffer. […]

For data set [4], the system named is melanoma cells (M14, SK-MEL-28, UACC-62, SK-MEL-5, MALME-3M). As to the kind of experiment: Sensitization of melanoma cells to TRAIL apoptosis, percentage decrease in cell number. The class given is cell-based. Conditions: for percentage decrease in cell number, agent alone: absence of TRAIL, FIGS. 18B-22B, 18C-22C. The source says: (§3) This example provides a comparison of the activities of compound 1 with the Smac mimetics birinapant, GDC-0152, and LCL-161 and with the Bcl-2 antagonists ABT-199 and ABT-737 for sensitization of renal carcinoma and melanoma cells to TRAIL apoptosis.
(§4) The results for compound 1 are shown graphically in FIGS. 13A-22A. The results for Smac mimetics birinapant, GDC-0152, and LCL-161 are shown graphically in FIGS. 13B-22B. The results for Bcl-2 antagonists ART-199 and ABT-737 are shown graphically in FIGS. 13C-22C, FIGS. 13A-22A, 13B-22B, and 13C-22C depict the percentage decrease in cell number as a function of concentration. For FIGS. 13B-22B and 13C-22C, the dose response curve was obtained for one of the listed agents.

Data set [5] relates to SKMEL28 melanoma cells. Description: Effect of pan caspase inhibitor ZVAD-FMK on growth inhibition by poly IC plus compound, MTS. The data set is classed as cell-based, human. Conditions: compound 1000 nM for 16-18 h, ZVAD-FMK 40 μM for 2 h, poly IC 20-24 h. The method, then:
To assess the effects of pan caspase inhibitor ZVAD, SKMEL28 melanoma cells were treated with compounds 9 and 1 for 16-18 h. Subsequently, ZVAD-FMK (40 μM) or DMSO was added for 2 h followed by 20-24 h incubation in the presence or absence of poly IC. Cell viability was assessed by addition of MTS during the last four hours of poly IC treatment.
The growth inhibition as a function of poly IC concentration at 1000 nM concentrations of compounds 9 and 1 was determined, and the results shown in FIGS. 10A and 10B, respectively.

Data set [6] relates to cFLIP. Description: Western blot of cFLIP levels in ACHN cells treated with compound, with or without poly IC. The data set is classed as cell-based. Conditions: compound 125 nM-1 μM overnight, FIGS. 5A and 5B. As to the method:
as §2
(In general: A western blot detects proteins with antibodies after separation by electrophoresis.)

The subject of data set [7] is renal carcinoma cell lines (ACHN, SN12C, Caki-1, TK-10, UO-31). Description: Sensitization of renal carcinoma cells to TRAIL apoptosis, percentage decrease in cell number. The data set is classed as cell-based. Conditions: for percentage decrease in cell number, agent alone: absence of TRAIL, FIGS. 13B-17B, 13C-17C.
From the text: as §3, §4

Data set [8] deals with Malme 3M melanoma cells. As to the kind of experiment: Titration of sensitization to TRAIL, MTS cell viability. Conditions: Malme (Malme 3M); compound 0.97 nM-2000 nM for 3 or 24 h, then 10 ng/ml TRAIL for 24 h. The class given is cell-based, human. As to the method:
as §1
(§5) For titration experiments in the presence or absence of TRAIL, cells were treated with various doses of compound 8 (0.97 nM-2000 nM) for 3 or 24 h followed by 10 ng/ml of recombinant TRAIL for 24 h. Cell viability was assessed by addition of MTS during the last four hours of TRAIL treatment. The results with SK MEL28, M14, and Malme cells are depicted in FIGS. 7A-7C, respectively.
(§6) Titration experiments were conducted as described in Example 5.

The subject of data set [9] is M14 melanoma cells. Described as above. The class given is cell-based, human. Conditions: compound 0.97 nM-2000 nM for 3 or 24 h, then 10 ng/ml TRAIL for 24 h. As to the method: as §1, §5, §6
Data set [10] concerns SK MEL28 melanoma cells. Described as above. The class given is cell-based, human. Conditions: compound 0.97 nM-2000 nM for 3 or 24 h, then 10 ng/ml TRAIL for 24 h. As to the method:
as §1, §5

In the case of `CC(=O)OC[C@]12CC[C@H]3[C@@H](C[C@H]4O[C@]45CC=CC(=O)[C@]35C)[C@]1(O)CC[C@@]2(O)[C@@](C)(O)[C@H]1CC(C)=C(C)C(=O)O1` [compound 1, physachenolide C], the “observation at the tumor site accompanying decrease in tumor burden” value in data set [1] was “massive tumor destruction and scabbing at the tumor site”. Besides, the “tumor growth and volume (tumor burden)” value in data set [1] (versus vehicle control, ****P<0.0001, 20 mg/kg) is “significant reduction in tumor growth and volume”. In addition, in [2], the “apoptosis by the compound and poly IC combination after incubation with bafilomycin-A1” value is reported as “significantly reduced subsequent apoptosis”. For the same compound, the “promoting caspase-8 activation in response to subsequent exposure to poly IC” value in [3] is “more active than compound 9”. Besides, the “sensitization to TRAIL apoptosis” value in data set [4] (25 ng/mL TRAIL) is recorded as “significant activity”; in [7] (50 ng/mL TRAIL), “superior sensitizer”. Also, in data set [5], the “reduction in cell number by poly IC in combination with compound, in presence of ZVAD-FMK” value was “completely blocked”. The “reducing the levels of cFLIPL+S” value in data set [6] was “more active than compound 9”.
`CC1=C(C)C(=O)OC([C@](C)(O)[C@]2(O)CC[C@@]3(O)C4CC=C5C(=O)C=CC(=O)[C@]5(C)C4CC[C@]23C)C1` (stereo partly shown) gave a melting point of 176 to 178 °C.
With `CN[C@@H](C)C(=O)N[C@H](C(=O)N1CCC[C@H]1c1nc(C(=O)c2ccc(F)cc2)cs1)C1CCCCC1` [LCL-161], the “percentage decrease in cell number, agent alone” value (shortened to “percentage decrease”) in data set [4] and in data set [7] was “little to no response due to concentration” each time.
`CN(C)CC[C@H](CSc1ccccc1)Nc1ccc(S(=O)(=O)NC(=O)c2ccc(N3CCN(Cc4ccccc4-c4ccc(Cl)cc4)CC3)cc2)cc1[N+](=O)[O-]` [ABT-737]: the “percentage decrease” value in [4] and in data set [7] was “little to no response due to concentration” throughout.
`CN[C@@H](C)C(=O)N[C@H](C(=O)N1CCC[C@H]1C(=O)Nc1snnc1-c1ccccc1)C1CCCCC1` [GDC-0152]: the “percentage decrease” value in data set [4] and in [7] was “little to no response due to concentration” in each case.
Turning to `CC[C@H](NC(=O)[C@H](C)NC)C(=O)N1C[C@@H](O)C[C@H]1Cc1c(-c2[nH]c3cc(F)ccc3c2C[C@@H]2C[C@H](O)CN2C(=O)[C@H](CC)NC(=O)[C@H](C)NC)[nH]c2cc(F)ccc12` [birinapant], the “percentage decrease” value in data set [4] and in [7] was “little to no response due to concentration” in each case.
For “biotinylated derivative of 4β-hydroxywithanolide E [compound 8]”, the “sensitization to apoptosis by TRAIL” value in data set [8] is given as “sensitized; also recorded: more potent than compound 1 at lower concentrations”; in [9] it was “sensitized; also recorded: more potent than compound 1 at lower concentrations”; in data set [10], “sensitized”.
For `CC1(C)CCC(CN2CCN(c3ccc(C(=O)NS(=O)(=O)c4ccc(NCC5CCOCC5)c([N+](=O)[O-])c4)c(Oc4cnc5[nH]ccc5c4)c3)CC2)=C(c2ccc(Cl)cc2)C1` [ABT-199], the “percentage decrease” value in data set [4] and in data set [7] was “little to no response due to concentration” in each case.
